Values after ≈ are worked out from the molar mass of the structure shown. Where two headings read alike, the source gives them in different places.
Test system: non-gonococcal Neisseria
Test: MIC determination for non-gonococcal Neisseria, agar dilution
Assay type: cell-based, Neisseria species
Description: The 2024 WHO N. gonorrhoeae reference strains were used for quality control. Only whole MIC doubling dilutions are reported. Clinical breakpoints or the epidemiological cutoff (ECOFF, to indicate azithromycin resistance) from EUCAST (v14.0, https://www.eucast.org/clinical_breakpoints) were used to classify isolates as antimicrobial susceptible or resistant. […] Two times the standard inoculum defined by CLSI was used to establish consistent growth in untreated control samples for some strains. In vitro time-kill assays were performed according to CLSI guidelines[65] using Columbia Broth (BD Difco) supplemented with 1% IsoVitaleX Enrichment (BD). Viable bacterial counts were generated by plating 10-fold serially diluted samples on GC agar plates containing 1% IsoVitaleX Enrichment (BD).

Cc1c(CN(C)C(=O)/C=C/c2cnc3c(c2)N[C@H](C)[C@H](O)C(=O)N3)oc2ccccc12 [Debio 1453]
MIC (Neisseria perflava 25, Replicate 3, read-out: Minimum inhibitory concentration): 1 µg/mL (≈ 2.38 µM) | MIC (Neisseria polysaccharea 2, Consensus, read-out: Minimum inhibitory concentration): 0.064 µg/mL (≈ 0.152 µM) | MIC (Neisseria polysaccharea 2, Replicate 1, read-out: Minimum inhibitory concentration): 0.064 µg/mL (≈ 0.152 µM) | MIC (Neisseria polysaccharea 2, Replicate 2, read-out: Minimum inhibitory concentration): 0.064 µg/mL (≈ 0.152 µM) | MIC (Neisseria polysaccharea 2, Replicate 3, read-out: Minimum inhibitory concentration): 0.064 µg/mL (≈ 0.152 µM) | MIC (Neisseria sicca 1, Consensus, read-out: Minimum inhibitory concentration): 0.5 µg/mL (≈ 1.19 µM) | MIC (Neisseria sicca 1, Replicate 1, read-out: Minimum inhibitory concentration): 0.25 µg/mL (≈ 0.595 µM) | MIC (Neisseria sicca 1, Replicate 2, read-out: Minimum inhibitory concentration): 0.5 µg/mL (≈ 1.19 µM) | MIC (Neisseria sicca 1, Replicate 3, read-out: Minimum inhibitory concentration): 0.5 µg/mL (≈ 1.19 µM) | MIC (Neisseria sicca 2, Consensus, read-out: Minimum inhibitory concentration): 0.25 µg/mL (≈ 0.595 µM) | MIC (Neisseria sicca 2, Replicate 1, read-out: Minimum inhibitory concentration): 0.25 µg/mL (≈ 0.595 µM) | MIC (Neisseria sicca 2, Replicate 2, read-out: Minimum inhibitory concentration): 0.25 µg/mL (≈ 0.595 µM) | MIC (Neisseria sicca 2, Replicate 3, read-out: Minimum inhibitory concentration): 0.5 µg/mL (≈ 1.19 µM) | MIC (Neisseria sicca 3, Consensus, read-out: Minimum inhibitory concentration): 0.008 µg/mL (≈ 0.019 µM) | MIC (Neisseria sicca 3, Replicate 1, read-out: Minimum inhibitory concentration): 0.008 µg/mL (≈ 0.019 µM) | MIC (Neisseria sicca 3, Replicate 2, read-out: Minimum inhibitory concentration): 0.016 µg/mL (≈ 0.0381 µM) | MIC (Neisseria sicca 3, Replicate 3, read-out: Minimum inhibitory concentration): 0.008 µg/mL (≈ 0.019 µM) | MIC (Neisseria sicca 4, Replicate 3, read-out: Minimum inhibitory concentration): 0.5 µg/mL (≈ 1.19 µM) | MIC (Neisseria sicca 5, Consensus, read-out: Minimum inhibitory concentration): 0.016 µg/mL (≈ 0.0381 µM) | MIC (Neisseria sicca 5, Replicate 1, read-out: Minimum inhibitory concentration): 0.008 µg/mL (≈ 0.019 µM) | MIC (Neisseria sicca 5, Replicate 2, read-out: Minimum inhibitory concentration): 0.016 µg/mL (≈ 0.0381 µM) | MIC (Neisseria sicca 5, Replicate 3, read-out: Minimum inhibitory concentration): 0.016 µg/mL (≈ 0.0381 µM) | MIC (Neisseria sicca 6, Consensus, read-out: Minimum inhibitory concentration): 1 µg/mL (≈ 2.38 µM) | MIC (Neisseria sicca 6, Replicate 1, read-out: Minimum inhibitory concentration): 1 µg/mL (≈ 2.38 µM) | MIC (Neisseria sicca 6, Replicate 2, read-out: Minimum inhibitory concentration): 1 µg/mL (≈ 2.38 µM) | MIC (Neisseria sicca 6, Replicate 3, read-out: Minimum inhibitory concentration): 1 µg/mL (≈ 2.38 µM) | MIC (Neisseria sicca 7, Consensus, read-out: Minimum inhibitory concentration): 0.008 µg/mL (≈ 0.019 µM) | MIC (Neisseria sicca 7, Replicate 1, read-out: Minimum inhibitory concentration): 0.008 µg/mL (≈ 0.019 µM) | MIC (Neisseria sicca 7, Replicate 2, read-out: Minimum inhibitory concentration): 0.008 µg/mL (≈ 0.019 µM) | MIC (Neisseria sicca 7, Replicate 3, read-out: Minimum inhibitory concentration): 0.008 µg/mL (≈ 0.019 µM) | MIC (Neisseria sicca 8, Consensus, read-out: Minimum inhibitory concentration): 1 µg/mL (≈ 2.38 µM) | MIC (Neisseria sicca 8, Replicate 1, read-out: Minimum inhibitory concentration): 0.5 µg/mL (≈ 1.19 µM) | MIC (Neisseria sicca 8, Replicate 2, read-out: Minimum inhibitory concentration): 1 µg/mL (≈ 2.38 µM) | MIC (Neisseria sicca 8, Replicate 3, read-out: Minimum inhibitory concentration): 1 µg/mL (≈ 2.38 µM) | MIC (Neisseria sicca 9, Consensus, read-out: Minimum inhibitory concentration): 0.25 µg/mL (≈ 0.595 µM) | MIC (Neisseria sicca 9, Replicate 1, read-out: Minimum inhibitory concentration): 0.25 µg/mL (≈ 0.595 µM) | MIC (Neisseria sicca 9, Replicate 2, read-out: Minimum inhibitory concentration): 0.25 µg/mL (≈ 0.595 µM) | MIC (Neisseria sicca 9, Replicate 3, read-out: Minimum inhibitory concentration): 0.25 µg/mL (≈ 0.595 µM) | MIC (Neisseria subflava 1, Consensus, read-out: Minimum inhibitory concentration): 2 µg/mL (≈ 4.76 µM) | MIC (Neisseria subflava 1, Replicate 1, read-out: Minimum inhibitory concentration): 2 µg/mL (≈ 4.76 µM) | MIC (Neisseria subflava 1, Replicate 2, read-out: Minimum inhibitory concentration): 2 µg/mL (≈ 4.76 µM) | MIC (Neisseria subflava 1, Replicate 3, read-out: Minimum inhibitory concentration): 2 µg/mL (≈ 4.76 µM) | MIC (Neisseria subflava 2, Consensus, read-out: Minimum inhibitory concentration): 0.25 µg/mL (≈ 0.595 µM) | MIC (Neisseria subflava 2, Replicate 1, read-out: Minimum inhibitory concentration): 0.25 µg/mL (≈ 0.595 µM) | MIC (Neisseria subflava 2, Replicate 2, read-out: Minimum inhibitory concentration): 0.25 µg/mL (≈ 0.595 µM) | MIC (Neisseria subflava 2, Replicate 3, read-out: Minimum inhibitory concentration): 0.25 µg/mL (≈ 0.595 µM) | MIC (Neisseria subflava 3, Consensus, read-out: Minimum inhibitory concentration): 0.25 µg/mL (≈ 0.595 µM) | MIC (Neisseria subflava 3, Replicate 1, read-out: Minimum inhibitory concentration): 0.25 µg/mL (≈ 0.595 µM) | MIC (Neisseria subflava 3, Replicate 2, read-out: Minimum inhibitory concentration): 0.25 µg/mL (≈ 0.595 µM) | MIC (Neisseria subflava 4, Consensus, read-out: Minimum inhibitory concentration): 0.064 µg/mL (≈ 0.152 µM) | MIC (Neisseria subflava 4, Replicate 1, read-out: Minimum inhibitory concentration): 0.064 µg/mL (≈ 0.152 µM) | MIC (Neisseria subflava 4, Replicate 2, read-out: Minimum inhibitory concentration): 0.064 µg/mL (≈ 0.152 µM) | MIC (Neisseria subflava 4, Replicate 3, read-out: Minimum inhibitory concentration): 0.064 µg/mL (≈ 0.152 µM) | MIC (Neisseria subflava 5, Consensus, read-out: Minimum inhibitory concentration): 0.5 µg/mL (≈ 1.19 µM) | MIC (Neisseria subflava 5, Replicate 1, read-out: Minimum inhibitory concentration): 0.5 µg/mL (≈ 1.19 µM) | MIC (Neisseria subflava 5, Replicate 2, read-out: Minimum inhibitory concentration): 0.5 µg/mL (≈ 1.19 µM) | MIC (Neisseria subflava 5, Replicate 3, read-out: Minimum inhibitory concentration): 0.5 µg/mL (≈ 1.19 µM) | MIC (po, Neisseria oralis 1, Consensus, read-out: Minimum inhibitory concentration): 0.25 µg/mL (≈ 0.595 µM) | MIC (po, Neisseria oralis 1, Replicate 1, read-out: Minimum inhibitory concentration): 0.25 µg/mL (≈ 0.595 µM) | MIC (po, Neisseria oralis 1, Replicate 2, read-out: Minimum inhibitory concentration): 0.25 µg/mL (≈ 0.595 µM) | MIC (po, Neisseria oralis 1, Replicate 3, read-out: Minimum inhibitory concentration): 0.25 µg/mL (≈ 0.595 µM) | MIC (read-out: Minimum inhibitory concentration, Neisseria cinerea 4, Consensus): 0.125 µg/mL (≈ 0.297 µM) | MIC (read-out: Minimum inhibitory concentration, Neisseria cinerea 4, Replicate 1): 0.125 µg/mL (≈ 0.297 µM) | MIC (read-out: Minimum inhibitory concentration, Neisseria cinerea 4, Replicate 2): 0.125 µg/mL (≈ 0.297 µM) | MIC (read-out: Minimum inhibitory concentration, Neisseria cinerea 4, Replicate 3): 0.125 µg/mL (≈ 0.297 µM) | MIC (read-out: Minimum inhibitory concentration, Neisseria cinerea 5, Consensus): 0.125 µg/mL (≈ 0.297 µM) | MIC (read-out: Minimum inhibitory concentration, Neisseria cinerea 5, Replicate 1): 0.125 µg/mL (≈ 0.297 µM) | MIC (read-out: Minimum inhibitory concentration, Neisseria cinerea 5, Replicate 2): 0.125 µg/mL (≈ 0.297 µM) | MIC (read-out: Minimum inhibitory concentration, Neisseria cinerea 5, Replicate 3): 0.125 µg/mL (≈ 0.297 µM) | MIC (read-out: Minimum inhibitory concentration, Neisseria cinerea 8, Consensus): 0.125 µg/mL (≈ 0.297 µM) | MIC (read-out: Minimum inhibitory concentration, Neisseria cinerea 8, Replicate 2): 0.125 µg/mL (≈ 0.297 µM) | MIC (read-out: Minimum inhibitory concentration, Neisseria cinerea 8, Replicate 3): 0.125 µg/mL (≈ 0.297 µM) | MIC (read-out: Minimum inhibitory concentration, Neisseria elongata 1, Consensus): 0.125 µg/mL (≈ 0.297 µM) | MIC (read-out: Minimum inhibitory concentration, Neisseria elongata 1, Replicate 1): 0.125 µg/mL (≈ 0.297 µM) | MIC (read-out: Minimum inhibitory concentration, Neisseria elongata 1, Replicate 2): 0.125 µg/mL (≈ 0.297 µM) | MIC (read-out: Minimum inhibitory concentration, Neisseria elongata 1, Replicate 3): 0.125 µg/mL (≈ 0.297 µM) | MIC (read-out: Minimum inhibitory concentration, Neisseria flava 1, Consensus): 0.125 µg/mL (≈ 0.297 µM) | MIC (read-out: Minimum inhibitory concentration, Neisseria flava 1, Replicate 1): 0.125 µg/mL (≈ 0.297 µM) | MIC (read-out: Minimum inhibitory concentration, Neisseria flava 1, Replicate 3): 0.125 µg/mL (≈ 0.297 µM) | MIC (read-out: Minimum inhibitory concentration, Neisseria flavescens 2, Consensus): 0.125 µg/mL (≈ 0.297 µM) | MIC (read-out: Minimum inhibitory concentration, Neisseria flavescens 2, Replicate 1): 0.125 µg/mL (≈ 0.297 µM) | MIC (read-out: Minimum inhibitory concentration, Neisseria flavescens 2, Replicate 3): 0.125 µg/mL (≈ 0.297 µM) | MIC (read-out: Minimum inhibitory concentration, Neisseria flavescens 8, Consensus): 0.125 µg/mL (≈ 0.297 µM) | MIC (read-out: Minimum inhibitory concentration, Neisseria flavescens 8, Replicate 2): 0.125 µg/mL (≈ 0.297 µM) | MIC (read-out: Minimum inhibitory concentration, Neisseria flavescens 8, Replicate 3): 0.125 µg/mL (≈ 0.297 µM) | MIC (read-out: Minimum inhibitory concentration, Neisseria flavescens 10, Consensus): 0.125 µg/mL (≈ 0.297 µM) | MIC (read-out: Minimum inhibitory concentration, Neisseria flavescens 10, Replicate 1): 0.125 µg/mL (≈ 0.297 µM) | MIC (read-out: Minimum inhibitory concentration, Neisseria flavescens 10, Replicate 3): 0.125 µg/mL (≈ 0.297 µM) | MIC (read-out: Minimum inhibitory concentration, Neisseria flavescens 12, Replicate 3): 0.125 µg/mL (≈ 0.297 µM) | MIC (read-out: Minimum inhibitory concentration, Neisseria mucosa 2, Consensus): 0.125 µg/mL (≈ 0.297 µM) | MIC (read-out: Minimum inhibitory concentration, Neisseria mucosa 2, Replicate 2): 0.125 µg/mL (≈ 0.297 µM) | MIC (read-out: Minimum inhibitory concentration, Neisseria mucosa 2, Replicate 3): 0.125 µg/mL (≈ 0.297 µM) | MIC (read-out: Minimum inhibitory concentration, Neisseria perflava 5, Consensus): 0.125 µg/mL (≈ 0.297 µM) | MIC (read-out: Minimum inhibitory concentration, Neisseria perflava 5, Replicate 1): 0.125 µg/mL (≈ 0.297 µM) | MIC (read-out: Minimum inhibitory concentration, Neisseria perflava 5, Replicate 2): 0.125 µg/mL (≈ 0.297 µM) | MIC (read-out: Minimum inhibitory concentration, Neisseria perflava 5, Replicate 3): 0.125 µg/mL (≈ 0.297 µM) | MIC (read-out: Minimum inhibitory concentration, Neisseria perflava 18, Consensus): 0.125 µg/mL (≈ 0.297 µM) | MIC (read-out: Minimum inhibitory concentration, Neisseria perflava 18, Replicate 1): 0.125 µg/mL (≈ 0.297 µM) | MIC (read-out: Minimum inhibitory concentration, Neisseria perflava 18, Replicate 3): 0.125 µg/mL (≈ 0.297 µM) | MIC (read-out: Minimum inhibitory concentration, Neisseria perflava 24, Consensus): 0.125 µg/mL (≈ 0.297 µM) | MIC (read-out: Minimum inhibitory concentration, Neisseria perflava 24, Replicate 1): 0.125 µg/mL (≈ 0.297 µM) | MIC (read-out: Minimum inhibitory concentration, Neisseria perflava 24, Replicate 2): 0.125 µg/mL (≈ 0.297 µM) | MIC (read-out: Minimum inhibitory concentration, Neisseria perflava 24, Replicate 3): 0.125 µg/mL (≈ 0.297 µM) | MIC (read-out: Minimum inhibitory concentration, Neisseria polysaccharea 1, Consensus): 0.125 µg/mL (≈ 0.297 µM) | MIC (read-out: Minimum inhibitory concentration, Neisseria polysaccharea 1, Replicate 1): 0.125 µg/mL (≈ 0.297 µM) | MIC (read-out: Minimum inhibitory concentration, Neisseria polysaccharea 1, Replicate 2): 0.125 µg/mL (≈ 0.297 µM) | MIC (read-out: Minimum inhibitory concentration, Neisseria polysaccharea 1, Replicate 3): 0.125 µg/mL (≈ 0.297 µM) | MIC (read-out: Minimum inhibitory concentration, Neisseria sicca 4, Consensus): 0.125 µg/mL (≈ 0.297 µM) | MIC (read-out: Minimum inhibitory concentration, Neisseria sicca 4, Replicate 1): 0.125 µg/mL (≈ 0.297 µM) | MIC (read-out: Minimum inhibitory concentration, Neisseria sicca 4, Replicate 2): 0.125 µg/mL (≈ 0.297 µM) | MIC (read-out: Minimum inhibitory concentration, Neisseria subflava 3, Replicate 3): 0.125 µg/mL (≈ 0.297 µM)

— PMC12446476 (Nature Communications, 2025)
